This is an account of results in publication PMC10216478, “Development of a Non-Peptide Angiotensin II Type 1 Receptor Ligand by Structural Modification of Olmesartan as a Biased Agonist” (Biomedicines, 2023).

A word on the Kd: it is the free concentration of one partner at which half of the binding sites on the other are occupied at equilibrium, for simple one-to-one binding.

Residue numbers refer to the chain shown, from its start.

One assay has as its target T1, AT1 Y292A receptor (Rattus norvegicus, UniProt P25095, Y292A).
T1 construct: expressed in transfected cells; host or cells: COS7
T1 sequence (P25095 1-359 Y292A): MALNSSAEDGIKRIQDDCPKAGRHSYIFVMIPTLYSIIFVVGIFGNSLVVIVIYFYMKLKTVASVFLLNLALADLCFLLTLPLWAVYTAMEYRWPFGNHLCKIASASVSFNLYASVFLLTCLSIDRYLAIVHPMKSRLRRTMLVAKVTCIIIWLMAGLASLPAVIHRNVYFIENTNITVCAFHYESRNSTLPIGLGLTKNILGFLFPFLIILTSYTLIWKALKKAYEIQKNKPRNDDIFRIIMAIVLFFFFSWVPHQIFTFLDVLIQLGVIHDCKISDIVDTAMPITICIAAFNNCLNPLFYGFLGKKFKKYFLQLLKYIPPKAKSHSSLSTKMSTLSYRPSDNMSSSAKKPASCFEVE
Nature of the assay: Competition binding study, 125I-[Sar1,Ile8]Ang II, AT1 Y292A receptor. The following applies: competition with 125I-[Sar1,Ile8]Ang II, n = 3, mean ± standard error, read-out: Binding affinity (Kd). From the text:
We mutated four amino acids in transmembrane (TM) III, VI, and VII in the AT1 receptor (L112A, Q257A, Y292A, and N295A receptors). We determined the mutation sites of the AT1 receptor according to ARB, which produced olmesartan derivatives with different interactions and functions toward the AT1 receptor, as previously reported by Zhang et al., since the additional 4-hydroxybenzyl groups of R781253 and R794847 were predicted to extend to a sub-pocket on the bottom of the AT1 receptor ligand-binding pocket consisting of Leu^112 and Gln^257. In addition, since the biased ligand TRV027 induced changes near the NPxxY motif in TM domain 7 that are related to receptor activation, Tyr^292 and Asn^295 in the AT1 receptor were mutated.
(§1) The synthetic rat AT1 receptor gene, which was cloned in the shuttle expression vector pMT-2, was used for expression and mutagenesis, as described previously. COS7 cells (No. CRL-1651, ATCC, Manassas, VA, USA) were cultured in 10% fetal bovine serum (FBS) and penicillin- and streptomycin-supplemented Dulbecco’s modified Eagle’s essential medium (PS-DMEM) in 5% CO2 at 37 °C. In the experiments, cells were grown without a cell-growth supplement. To express the AT1 receptor protein, 10 µg of purified plasmid DNA per 10^7 cells was used in the transfection. Wild-type and mutated AT1 receptors were transiently transfected into cells using Lipofectamine 2000 liposomal reagent (Roche Applied Science, Penzberg, Germany). Cells were plated and grown and were 70–90% confluent at the time of transfection. We incubated plasmid DNA (10 µg)–lipid (10 µL) complexes for 5 min at room temperature and added and incubated the complexes with cells for 24 h. We then analyzed the parameters in transfected cells. Cell viability was >95% according to trypan blue exclusion analysis in the control experiments. Transfected cells that had been cultured for 48–72 h were harvested. Cell membranes were prepared using the nitrogen Parr bomb disruption or freeze–thaw methods.
The Kd (nM) values of receptor binding were determined with ^125I-[Sar^1, Ile^8]AngII-binding experiments under equilibrium conditions. Binding kinetics were determined following the methods described in the literature. We carried out binding by using ^125I-[Sar^1, Ile^8] AngII (2200 Ci/mmol) and an increasing concentration (10^−11–10^−5 M) of each unlabeled compound. Nonspecific binding of ^125I-[Sar^1, Ile^8] Ang II was determined in the presence of a high concentration (10^−6 M) of unlabeled [Sar^1, Ile^8]. Next, the incubation mixture was separated by vacuum filtration through Whatman GF/C glass filters (Disposable Filter Funnels Grade GF/C, GE Healthcare), and presoaked with 0.1% polyethylenimine. The filter was washed with 3 mL of ice-cold stop buffer (25 mM Tris–HCl, pH 7.4, 1 mM MgCl2). The radioactivity trapped on the filters was quantified using an automatic γ-counter. The percentage (%) of specific binding of ^125I-[Sar^1, Ile^8]Ang II was calculated using the following formula: 100 × (% total binding of ^125I-[Sar^1, Ile^8]Ang II—nonspecific binding of ^125I-[Sar^1, Ile^8]Ang II)/(% total binding of ^125I-[Sar^1, Ile^8]Ang II).

The next assay concerns the target T2, AT1 wild-type receptor (Rattus norvegicus, UniProt P25095).
T2 construct: expressed in transfected cells; host or cells: COS7
T2 sequence (P25095 1-359): T1 sequence (P25095 1-359 Y292A) with A292Y
Put plainly: Immunoblotting of ERK 1/2 activation in COS7 cells overexpressing AT1 wild-type receptor. It counts as cell-based. The following applies: for ERK1/2 activation: AT1 wild-type receptor, COS7 cells, 1 µM ligands or 0.1 µM Ang II, 10 min, n = 5, vs. (-); for Mode of action in terms of ERK1/2 activation: authors' classification from ERK1/2 activation. As to the method: as §1, with “COS7 cells (No. CRL-1651, ATCC, Manassas, VA, USA) were cultured in 10% fetal bovine serum (FBS) and penicillin- and streptomycin-supplemented Dulbecco’s modified Eagle’s essential medium (PS-DMEM) in 5% CO2 at 37 °C.” left out, “Cell viability was >95% according to trypan blue exclusion analysis in the control experiments.” left out
In in vitro studies, ERK 1/2 activation by 1 µM ligands or 0.1 µM Ang II incubated for 10 min was measured using COS7 cells that overexpressed AT1 wild-type and mutant receptors. ERK activity was measured in cells maintained for 18 h in DMEM containing 0.1% serum. At the end of the stimulation, the culture medium was removed by aspiration, the cells were washed with ice-cold phosphate-buffered saline, and the dishes were frozen in liquid nitrogen. The cells were scraped using a scraper after melting, and the scraped cells were transferred to a tube. We homogenized the cells in lysis buffer plus protease inhibitors and determined the protein concentration using the bicinchoninic acid method. […] We fractionated total proteins using sodium dodecyl sulfate polyacrylamide gel electrophoresis; we then transferred the proteins to a Hybond nitrocellulose membrane and blocked the blotted membranes with 10% bovine serum albumin in tris-buffered saline buffer (50 mM Tris–HCl pH 7.6, 150 mM NaCl) for 1 h at room temperature. […] An enhanced chemiluminescent substrate system (Amersham, Buckinghamshire, UK) was used. The signal was independently quantified by digital image analysis (ImageJ, National Institutes of Health, Bethesda, MD, USA).
For orientation: Immunoblotting shows a protein as a band on a membrane.

For the compound `CCCc1nc(C(C)(C)O)c(C(=O)O)n1Cc1ccc(-c2ccccc2-c2nnn[nH]2)cc1` [Olmesartan, olmesartan], the Kd on AT1 Y292A receptor was found to be 47 ± 15 nM. Moreover, at AT1 wild-type receptor, the ERK1/2 activation entry was “did not change ERK1/2 activation”.

Regarding `CCCc1nc(C(C)(C)O)c(C(N)=O)n1Cc1ccc(-c2ccccc2-c2nnn[nH]2)cc1` [R239470], the Kd on AT1 Y292A receptor came out at 6.3 ± 3.8 nM. On AT1 wild-type receptor, the ERK1/2 activation result was “but not R239470, activated ERK1/2”.

Regarding `CCCc1nc(C(C)(C)O)c(C(=O)O)n1Cc1ccc(-c2cc(Cc3ccc(O)cc3)ccc2-c2nnn[nH]2)cc1` [R781253], on AT1 Y292A receptor, the Kd was 95 ± 7 nM. Besides, on AT1 wild-type receptor, the ERK1/2 activation result is given as “activated ERK1/2” and the “Mode of action in terms of ERK1/2 activation” value is “agonists in terms of ERK1/2 activation”.

For `CCCc1nc(C(C)(C)O)c(C(N)=O)n1Cc1ccc(-c2cc(Cc3ccc(O)cc3)ccc2-c2nnn[nH]2)cc1` [R794847], the equilibrium dissociation constant (Kd) on AT1 Y292A receptor was 30 ± 8 nM. Also, at AT1 wild-type receptor, the ERK1/2 activation entry is given as “activated ERK1/2” and the “Mode of action in terms of ERK1/2 activation” value was “agonists in terms of ERK1/2 activation”.
